Data as given in patent US11845724B2, “USP30 inhibitors and uses thereof” (Vincere Biosciences, Inc., priority 2019, dated 2023).
Like-named read-outs stand apart in the source and are kept apart here.

What was measured:
[1] = molecular target: T1, USP30 (Homo sapiens (Human), UniProt Q70CQ3); assay: Dundee MALDI-TOF mass spectrometry assay (IC50); format: biochemical; conditions: USP30 25 ng/μl, K48-linked diubiquitin 5.6 μM
How it was run: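 USP30 (25 ng/μl) preincubated with compound 5 min at RT in Tris/BSA/DTT buffer, then K48-linked diubiquitin (5.6 μM) added for 45 min at RT. Stopped with 2% TFA; cleavage quantified by MALDI-TOF mass spectrometry to give IC50.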

[2] = molecular target: T1, USP30; assay: Dundee MALDI-TOF mass spectrometry assay (% DUB activity remaining at 1 μM); format: biochemical; conditions: % DUB activity remaining at compound concentration of 1 μM; avg; read-out: Dundee % Activity at 1 μM (avg in vitro MS assay)
Method: Compounds were tested in a MALDI-TOF assay based on the paper by Ritorto et al. (Ritorto et al. Screening of DUB activity and specificity by MALDI-TOF mass spectrometry. Nat. Commun. 5:4763).
USP30 (25 ng/μl) tested against K48-linked diubiquitin (5.6 μM). USP30 was diluted in a buffer containing 40 mM Tris, 0.01% BSA, 1 mM DTT and K48 in 40 mM Tris, 0.01% BSA.
The compounds were pre-incubated with the USP30 for 5 mins at room temp before the K48 dimer addition. The assay mixture was then incubated for 45 mins at room temp. The assay was stopped by the addition of TFA to a final concentration of 2% (v/v).
Acidified samples of the DUB assays were mixed with 0.5 mM 15N-ubiquitin and then with one part of 2% (v/v) TFA and one part of 2,5 DHAP matrix solution (7.6 mg of 2,5 DHAP in […] ethanol and […] of an aqueous 12 mg ml 1 diammonium hydrogen citrate). Then 250 nl of these solutions were spotted onto an MTP AnchorChip 1,536 TF and this is analysed on the Bruker rapifleX MALDI-TOF.
Table 22 presents the Dundee MALDI-TOF values expressed as % DUB activity remaining at a compound concentration of 1 μM.

[3] = molecular target: recombinant USP30 (amino acids 57-517 of the human sequence) (Homo sapiens (Human), UniProt Q70CQ3); assay: In vitro USP30 biochemical assay (Ubiquitin-Rhodamine)
Sequence of recombinant USP30 (amino acids 57-517 of the human sequence) (Q70CQ3 57-517): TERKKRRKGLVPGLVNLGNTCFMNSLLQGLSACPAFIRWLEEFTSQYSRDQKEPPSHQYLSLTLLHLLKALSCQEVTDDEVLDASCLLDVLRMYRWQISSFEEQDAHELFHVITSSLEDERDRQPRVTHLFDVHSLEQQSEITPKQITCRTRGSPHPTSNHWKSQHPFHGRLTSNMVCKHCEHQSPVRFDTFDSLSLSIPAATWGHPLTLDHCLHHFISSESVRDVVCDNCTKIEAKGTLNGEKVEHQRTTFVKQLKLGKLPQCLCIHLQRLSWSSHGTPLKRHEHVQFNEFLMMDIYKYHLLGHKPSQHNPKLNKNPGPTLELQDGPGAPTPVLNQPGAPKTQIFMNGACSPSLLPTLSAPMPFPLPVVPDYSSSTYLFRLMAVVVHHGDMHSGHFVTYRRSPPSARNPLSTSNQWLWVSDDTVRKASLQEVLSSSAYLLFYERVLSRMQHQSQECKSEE

[4] = Dundee IC50 μM (avg in vitro MS assay)
[5] = avg, read-out: Dundee IC50 μM (avg in vitro MS assay)
[6] = read-out: USP30 IC50 μM (avg), Ubiquitin-Rhodamine substrate 25 nM, 1.5 nM recombinant USP30
[7] = USP30 IC50 μM (avg), Ubiquitin-Rhodamine substrate 25 nM, 1.5 nM recombinant USP30

T1 sequence (Q70CQ3 whole entry): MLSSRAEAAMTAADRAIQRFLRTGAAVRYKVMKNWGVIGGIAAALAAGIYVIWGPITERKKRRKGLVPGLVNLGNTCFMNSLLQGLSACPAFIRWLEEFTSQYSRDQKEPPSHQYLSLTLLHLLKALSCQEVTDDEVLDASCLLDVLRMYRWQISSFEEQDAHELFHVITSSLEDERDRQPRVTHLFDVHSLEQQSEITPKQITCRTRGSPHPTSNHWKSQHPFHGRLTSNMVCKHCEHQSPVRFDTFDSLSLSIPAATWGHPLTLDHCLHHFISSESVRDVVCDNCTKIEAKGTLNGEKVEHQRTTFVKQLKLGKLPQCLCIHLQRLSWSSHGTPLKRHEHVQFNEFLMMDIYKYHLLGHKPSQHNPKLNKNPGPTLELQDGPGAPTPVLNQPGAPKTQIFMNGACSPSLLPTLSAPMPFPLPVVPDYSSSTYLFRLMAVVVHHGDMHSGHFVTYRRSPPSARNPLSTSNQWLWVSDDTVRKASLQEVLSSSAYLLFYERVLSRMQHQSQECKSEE

Row | SMILES | activity at 1 µM [2] [%] | IC50 [1, 5] [µM] | IC50 [3, 6] [µM] | IC50 [3, 7] [µM] | IC50 [1, 4] [µM]
1 | CC(C)(C)NS(=O)(=O)c1ccc(NC(=O)C2(NC(=O)c3ccc(F)cc3)CC2c2ccccc2)cc1 (racemic) [Compound I-82, racemic-N-(Z)-(1-(4-(N-tert-butylsulfamoyl)phenylcarbamoyl)-2-phenylcyclopropyl)-4-fluorobenzamide] | > 75 | – | – | – | > 1
2 | CC(C)(C)NS(=O)(=O)c1ccc(NC(=O)C2(NC(=O)c3ccc(F)cc3)CC2c2ccccc2)cc1 (racemic) [Compound I-83, racemic-N-((E)-1-(4-(N-tert-butylsulfamoyl)phenylcarbamoyl)-2-phenylcyclopropyl)-4-fluorobenzamide] | > 75 | > 1 | – | – | –
3 | CC(C)(C)N[S+]([O-])c1ccc(NC(=O)[C@H](Cc2ccccc2)NC(=O)c2ccc(F)cc2)cc1 (stereo partly drawn) [Compound I-15, N-((2S)-1-(4-(N-tert-Butylsulfinamoyl)phenylamino)-1-oxo-3-phenylpropan-2-yl)-4-fluorobenzamide] | 25 to 50 | 0.05 to 1 | – | – | –
4 | CC(C)(C)N=S(C)(=O)c1ccc(NC(=O)[C@H](Cc2ccccc2)NC(=O)c2ccc(F)cc2)cc1 (stereo partly drawn) [Compound I-17, N-((2S)-1-((4-(N-(tert-butyl)-S-methylsulfonimidoyl)phenyl)amino)-1-oxo-3-phenylpropan-2-yl)-4-fluorobenzamide] | > 75 | – | – | – | > 1
5 | CC(C)(C)NS(=O)(=O)c1ccc(N2C(=O)C(NC(=O)c3ccc(F)cc3)Cc3ccccc32)cc1 (stereo not shown) [Compound I-20, N-(1-(4-(N-tert-butylsulfamoyl)phenyl)-2-oxo-1,2,3,4-tetrahydroquinolin-3-yl)-4-fluorobenzamide] | > 75 | – | > 10 | – | –
6 | CC(C)(C)NC(=O)c1ccc(NC(=O)[C@H](Cc2ccccc2)NC(=O)c2ccc(F)cc2)cc1 [Compound I-29, (S)-N-tert-butyl-4-(2-(4-fluorobenzamido)-3-phenylpropanamido)benzamide] | > 75 | – | – | – | > 1
7 | CC(C)(C)NS(=O)(=O)c1ccc(NC[C@H](Cc2ccccc2)NC(=O)c2ccc(F)cc2)cc1 [Compound I-44, (S)-N-(1-(4-(N-tert-butylsulfamoyl)phenylamino)-3-phenylpropan-2-yl)-4-fluorobenzamide] | > 75 | > 1 | – | – | –
8 | CCNS(=O)(=O)c1ccc(NC(=O)C2(NC(=O)c3ccccc3)CCc3ccccc3C2)cc1 (stereo not shown) [Compound I-47, 2-benzamido-N-(4-(N-ethylsulfamoyl)phenyl)-1,2,3,4-tetrahydronaphthalene-2-carboxamide] | > 75 | > 1 | – | – | –
9 | CC(C)(C)NS(=O)(=O)c1ccc(NC(=O)C2(NC(=O)c3ccccc3)CCc3ccccc3C2)cc1 (stereo not shown) [Compound I-48, 2-benzamido-N-(4-(N-tert-butylsulfamoyl)phenyl)-1,2,3,4-tetrahydronaphthalene-2-carboxamide] | > 75 | > 1 | – | – | –
10 | CCNS(=O)(=O)c1ccc(NC(=O)[C@H](Cc2ccccc2)N(CC)C(=O)c2ccc(F)cc2)cc1 [Compound I-52, (S)-N-ethyl-N-(1-(4-(N-ethylsulfamoyl)phenylamino)-1-oxo-3-phenylpropan-2-yl)-4-fluorobenzamide] | > 75 | – | > 10 | – | –
11 | CC(C)(C)NS(=O)(=O)c1ccc(NC(=O)C2Cc3ccccc3N2C(=O)c2ccc(F)cc2)cc1 (stereo not shown) [Compound I-53, N-(4-(N-tert-butylsulfamoyl)phenyl)-1-(4-fluorobenzoyl)indoline-2-carboxamide] | > 75 | – | > 10 | – | –
12 | CC(C)(C)NS(=O)(=O)c1ccc(NC(=O)C2Cc3cccnc3N2C(=O)c2ccc(F)cc2)cc1 (stereo not shown) [Compound I-57, N-(4-(N-tert-butylsulfamoyl)phenyl)-1-(4-fluorobenzoyl)-2,3-dihydro-1H-pyrrolo[2,3-b]pyridine-2-carboxamide] | > 75 | – | – | – | > 1
13 | CC(C)(C)NS(=O)(=O)c1ccc(NC(=O)C2Cc3ncccc3CN2C(=O)c2ccc(F)cc2)cc1 (stereo not shown) [Compound I-60, N-(4-(N-tert-butylsulfamoyl)phenyl)-6-(4-fluorobenzoyl)-5,6,7,8-tetrahydro-1,6-naphthyridine-7-carboxamide] | > 75 | – | > 10 | – | –
14 | O=C(N[C@@H](Cc1cccnc1)C(=O)Nc1ccc(S(=O)(=O)NC2COC2)cc1)c1ccc(F)cc1 [Compound I-66, (S)-4-fluoro-N-(1-(4-(N-oxetan-3-ylsulfamoyl)phenylamino)-1-oxo-3-(pyridin-3-yl)propan-2-yl)benzamide] | 0 to 25 | 0.05 to 1 | – | – | –
15 | CC(C)(C)NS(=O)(=O)c1cccc(NC(=O)[C@H](Cc2ccccc2)NC(=O)c2ccc(F)cc2)c1 [Compound I-68, (S)-N-(1-(3-(N-tert-butylsulfamoyl)phenylamino)-1-oxo-3-phenylpropan-2-yl)-4-fluorobenzamide] | > 75 | – | – | – | > 1

More lines, main results first:

Row | activity at 1 µM [2] [%] | IC50 [1, 5] [µM] | IC50 [3, 6] [µM] | IC50 [3, 7] [µM] | SMILES | IC50 [1, 4] [µM]
16 | > 75 | – | > 10 | – | CC(C)(C)NS(=O)(=O)c1ccc(N2Cc3ccccc3CC(NC(=O)c3ccc(F)cc3)C2=O)cc1 (stereo not shown) [Compound I-21, N-(2-(4-(N-tert-butylsulfamoyl)phenyl)-3-oxo-2,3,4,5-tetrahydro-1H-benzo[c]azepin-4-yl)-4-fluorobenzamide] | –
17 | 0 to 25 | < 0.05 | – | – | C[C@H](NS(=O)(=O)c1ccc(NC(=O)[C@H](Cc2ccccc2)NC(=O)c2ccc(F)cc2)cc1)C1CC1 [Compound I-27, N-((S)-1-(4-(N-((S)-1-cyclopropylethyl)sulfamoyl)phenylamino)-1-oxo-3-phenylpropan-2-yl)-4-fluorobenzamide] | –
18 | 0 to 25 | < 0.05 | – | – | CC[C@H](C)NS(=O)(=O)c1ccc(NC(=O)[C@H](Cc2ccccc2)NC(=O)c2ccc(F)cc2)cc1 [Compound I-28, N-((S)-1-((4-(N-((S)-sec-butyl)sulfamoyl)phenyl)amino)-1-oxo-3-phenylpropan-2-yl)-4-fluorobenzamide] | –
19 | > 75 | > 1 | – | – | CN(C(=O)[C@H](Cc1ccccc1)NC(=O)c1ccc(F)cc1)c1ccc(S(=O)(=O)NC(C)(C)C)cc1 [Compound I-36, (S)-N-(1-((4-(N-tert-butylsulfamoyl)phenyl)(methyl)amino)-1-oxo-3-phenylpropan-2-yl)-4-fluorobenzamide] | –
20 | > 75 | 1 to 10 | – | – | CC(C)(C)NS(=O)(=O)c1ccc(NC[C@@H](O)[C@H](Cc2ccccc2)NC(=O)c2ccc(F)cc2)cc1 [Compound I-42, N-((2S,3R)-4-(4-(N-tert-butylsulfamoyl)phenylamino)-3-hydroxy-1-phenylbutan-2-yl)-4-fluorobenzamide] | –
21 | 50 to 75 | – | – | 1 to 10 | CC(C)(C)NS(=O)(=O)c1ccc(NC(=O)[C@H](Cc2ccccc2)NC(=O)OC2CCOCC2)cc1 [Compound I-43, (S)-tetrahydro-2H-pyran-4-yl 1-(4-(N-tert-butylsulfamoyl)phenylamino)-1-oxo-3-phenylpropan-2-ylcarbamate] | –
22 | > 75 | > 1 | – | – | CC(C)(C)NS(=O)(=O)c1ccc(OC[C@H](Cc2ccccc2)NC(=O)c2ccc(F)cc2)cc1 [Compound I-45, (S)-N-(1-(4-(N-tert-butylsulfamoyl)phenoxy)-3-phenylpropan-2-yl)-4-fluorobenzamide] | –
23 | > 75 | > 1 | – | – | CC(C)(C)NS(=O)(=O)c1ccc(NC(=O)[C@H](Cc2ccccc2)OCc2ccc(F)cc2)cc1 [Compound I-46, (S)-N-(4-(N-tert-butylsulfamoyl)phenyl)-2-(4-fluorobenzyloxy)-3-phenylpropanamide] | –
24 | > 75 | 1 to 10 | – | – | CCNS(=O)(=O)c1ccc(NC(=O)C2Cc3ccccc3CN2C(=O)c2ccc(F)cc2)cc1 (stereo not shown) [Compound I-49, N-(4-(N-ethylsulfamoyl)phenyl)-2-(4-fluorobenzoyl)-1,2,3,4-tetrahydroisoquinoline-3-carboxamide] | –
25 | > 75 | – | > 10 | – | CC(C)(C)NS(=O)(=O)c1ccc(NC(=O)C2Cc3cnccc3N2C(=O)c2ccc(F)cc2)cc1 (stereo not shown) [Compound I-55, N-(4-(N-tert-butylsulfamoyl)phenyl)-1-(4-fluorobenzoyl)-2,3-dihydro-1H-pyrrolo[3,2-c]pyridine-2-carboxamide] | –
26 | > 75 | – | – | 1 to 10 | CC(C)(C)NS(=O)(=O)c1ccc(NC(=O)C2Cc3cccnc3CN2C(=O)c2ccc(F)cc2)cc1 (stereo not shown) [Compound I-59, N-(4-(N-tert-butylsulfamoyl)phenyl)-7-(4-fluorobenzoyl)-5,6,7,8-tetrahydro-1,7-naphthyridine-6-carboxamide] | –
